Data on 3 compounds can be found in ChEMBL document CHEMBL4371033, “Highly Potent and Selective Plasmin Inhibitors Based on the Sunflower Trypsin Inhibitor-1 Scaffold Attenuate Fibrinolysis in Plasma” (J Med Chem, 2019).

As usually defined, the pKi is −log10 of the Ki, conventionally taken in molar units.

Assay [1] deals with T1, Prothrombin (Homo sapiens, UniProt P00734). Briefly: Inhibition of human thrombin using Ac-ATPR-pNA as substrate after 30 mins relative to untreated control.
Assay [2] addresses T2, Coagulation factor XII (Homo sapiens, UniProt P00748).
T2 sequence (P00748 whole entry): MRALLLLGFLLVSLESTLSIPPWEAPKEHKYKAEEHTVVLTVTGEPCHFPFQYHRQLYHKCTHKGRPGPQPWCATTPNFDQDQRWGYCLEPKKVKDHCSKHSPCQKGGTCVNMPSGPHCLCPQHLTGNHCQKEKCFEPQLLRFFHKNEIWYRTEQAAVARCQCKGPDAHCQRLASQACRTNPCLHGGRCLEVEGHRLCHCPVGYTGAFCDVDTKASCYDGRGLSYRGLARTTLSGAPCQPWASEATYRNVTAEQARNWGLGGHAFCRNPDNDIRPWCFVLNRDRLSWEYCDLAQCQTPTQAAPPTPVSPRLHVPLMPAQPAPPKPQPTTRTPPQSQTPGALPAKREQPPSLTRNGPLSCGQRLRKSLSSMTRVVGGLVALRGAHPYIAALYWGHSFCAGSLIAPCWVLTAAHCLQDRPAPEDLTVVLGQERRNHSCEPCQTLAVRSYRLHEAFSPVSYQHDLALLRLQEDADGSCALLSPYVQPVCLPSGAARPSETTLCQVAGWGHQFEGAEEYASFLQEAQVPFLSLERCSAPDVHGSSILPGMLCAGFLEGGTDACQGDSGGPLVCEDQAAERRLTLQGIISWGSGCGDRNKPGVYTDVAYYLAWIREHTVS
Briefly: Inhibition of activated beta-factor 12 (unknown origin) using Ac-QRFR-pNA as substrate after 30 mins relative to untreated control.

The target of assay [3] is T3, Plasma kallikrein (Homo sapiens, UniProt P03952). Briefly: Inhibition of plasma KLK (unknown origin) using Ac-NLTR-pNA as substrate after 30 mins.
T3 sequence (P03952 20-390 limits assumed): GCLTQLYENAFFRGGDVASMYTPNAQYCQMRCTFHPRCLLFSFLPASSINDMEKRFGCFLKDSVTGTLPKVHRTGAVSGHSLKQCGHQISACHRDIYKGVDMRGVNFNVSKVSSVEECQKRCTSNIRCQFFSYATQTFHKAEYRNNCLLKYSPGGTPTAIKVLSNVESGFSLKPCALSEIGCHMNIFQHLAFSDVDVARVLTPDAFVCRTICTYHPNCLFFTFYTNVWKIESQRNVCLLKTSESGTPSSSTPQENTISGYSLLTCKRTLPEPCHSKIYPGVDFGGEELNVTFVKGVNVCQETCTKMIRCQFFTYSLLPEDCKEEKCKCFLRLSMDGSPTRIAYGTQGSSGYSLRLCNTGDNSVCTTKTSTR
T3 sequence (P03952 391-638 limits assumed): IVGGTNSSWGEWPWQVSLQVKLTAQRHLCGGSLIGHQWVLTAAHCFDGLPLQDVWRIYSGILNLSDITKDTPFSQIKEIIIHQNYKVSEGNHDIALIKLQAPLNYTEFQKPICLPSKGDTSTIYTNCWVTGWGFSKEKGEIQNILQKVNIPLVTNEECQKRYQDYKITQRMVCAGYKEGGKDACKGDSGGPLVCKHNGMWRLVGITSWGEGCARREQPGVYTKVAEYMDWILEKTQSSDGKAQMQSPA
Assay [4] addresses Urokinase-type plasminogen activator (Homo sapiens, UniProt P00749). Briefly: Inhibition of uPA (unknown origin) using Z-Pyr-Gly-Arg-MCA as substrate after 30 mins relative to untreated control.
The target in a further assay is Coagulation factor X (Homo sapiens, UniProt P00742). Briefly: Inhibition of activated factor 10 (unknown origin) using Ac-QRSR-pNA as substrate after 30 mins relative to untreated control.
Chain of Coagulation factor X (P00742 41-179 limits assumed): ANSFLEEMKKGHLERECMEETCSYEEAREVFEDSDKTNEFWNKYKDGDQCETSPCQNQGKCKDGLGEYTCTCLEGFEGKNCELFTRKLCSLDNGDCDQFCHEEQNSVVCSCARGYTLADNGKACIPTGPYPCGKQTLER
Chain of Coagulation factor X (P00742 235-488 limits assumed): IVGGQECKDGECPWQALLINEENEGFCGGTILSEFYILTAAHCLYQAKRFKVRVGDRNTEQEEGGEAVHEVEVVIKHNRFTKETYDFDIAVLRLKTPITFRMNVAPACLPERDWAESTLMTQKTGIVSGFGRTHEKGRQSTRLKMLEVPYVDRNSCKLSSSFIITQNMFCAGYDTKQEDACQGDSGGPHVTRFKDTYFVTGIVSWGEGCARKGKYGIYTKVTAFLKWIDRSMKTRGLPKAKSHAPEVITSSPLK
The target in another assay is Coagulation factor IX (Homo sapiens, UniProt P00740). Briefly: Inhibition of activated beta-factor 9 (unknown origin) using Boc-QGR-MCA as substrate after 30 mins relative to untreated control.
Chain of Coagulation factor IX (P00740 47-191 limits assumed): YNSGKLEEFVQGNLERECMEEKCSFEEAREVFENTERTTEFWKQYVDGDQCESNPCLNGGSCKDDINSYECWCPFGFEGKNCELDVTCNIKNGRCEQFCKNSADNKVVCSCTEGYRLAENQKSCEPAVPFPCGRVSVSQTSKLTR
Chain of Coagulation factor IX (P00740 227-461 limits assumed): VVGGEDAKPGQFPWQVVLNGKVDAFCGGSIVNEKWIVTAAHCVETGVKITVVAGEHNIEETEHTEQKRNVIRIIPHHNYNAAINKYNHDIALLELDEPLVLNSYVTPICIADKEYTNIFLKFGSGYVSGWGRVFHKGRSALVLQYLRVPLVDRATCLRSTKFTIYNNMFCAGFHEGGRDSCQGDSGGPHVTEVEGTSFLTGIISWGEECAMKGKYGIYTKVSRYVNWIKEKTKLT
Another assay deals with Plasminogen (Homo sapiens, UniProt P00747). Briefly: Inhibition of human plasmin using Ac-RM(O2)YR-pNA as substrate after 30 mins.
Chain of Plasminogen (P00747 97-580 limits assumed): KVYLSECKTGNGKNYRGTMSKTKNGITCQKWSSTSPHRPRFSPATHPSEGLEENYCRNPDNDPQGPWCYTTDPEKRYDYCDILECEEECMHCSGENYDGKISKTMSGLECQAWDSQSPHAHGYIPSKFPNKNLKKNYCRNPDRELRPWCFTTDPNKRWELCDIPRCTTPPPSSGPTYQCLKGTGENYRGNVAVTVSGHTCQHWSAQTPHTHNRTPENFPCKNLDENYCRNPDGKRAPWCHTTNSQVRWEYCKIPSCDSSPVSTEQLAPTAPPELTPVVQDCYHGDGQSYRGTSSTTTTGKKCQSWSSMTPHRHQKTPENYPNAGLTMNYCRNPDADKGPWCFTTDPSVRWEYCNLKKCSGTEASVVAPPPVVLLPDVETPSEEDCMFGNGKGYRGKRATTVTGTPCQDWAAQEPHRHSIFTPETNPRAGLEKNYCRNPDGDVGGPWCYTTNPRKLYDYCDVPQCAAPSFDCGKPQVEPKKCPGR
Chain of Plasminogen (P00747 581-810 limits assumed): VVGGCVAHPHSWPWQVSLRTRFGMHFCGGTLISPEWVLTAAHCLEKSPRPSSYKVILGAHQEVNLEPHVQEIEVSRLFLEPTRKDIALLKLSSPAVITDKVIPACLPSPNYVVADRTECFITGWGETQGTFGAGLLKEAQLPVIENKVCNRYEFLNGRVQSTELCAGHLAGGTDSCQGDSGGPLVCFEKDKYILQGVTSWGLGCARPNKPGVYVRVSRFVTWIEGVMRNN
In a further assay the target is T4, Serine protease 1 (Bos taurus, UniProt P00760).
T4 sequence (P00760 whole entry): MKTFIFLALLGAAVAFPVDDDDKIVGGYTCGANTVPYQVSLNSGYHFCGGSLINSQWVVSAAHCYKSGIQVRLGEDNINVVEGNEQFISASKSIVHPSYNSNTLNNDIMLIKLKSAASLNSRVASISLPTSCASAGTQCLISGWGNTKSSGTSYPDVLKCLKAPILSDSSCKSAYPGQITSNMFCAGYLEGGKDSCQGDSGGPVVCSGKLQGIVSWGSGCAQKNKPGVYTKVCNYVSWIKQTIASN
Briefly: Inhibition of bovine cationic trypsin using Bz-FVR-pNA as substrate after 30 mins.

Assay [5] deals with T5, Suppressor of tumorigenicity 14 protein (Homo sapiens, UniProt Q9Y5Y6).
T5 sequence (Q9Y5Y6 whole entry): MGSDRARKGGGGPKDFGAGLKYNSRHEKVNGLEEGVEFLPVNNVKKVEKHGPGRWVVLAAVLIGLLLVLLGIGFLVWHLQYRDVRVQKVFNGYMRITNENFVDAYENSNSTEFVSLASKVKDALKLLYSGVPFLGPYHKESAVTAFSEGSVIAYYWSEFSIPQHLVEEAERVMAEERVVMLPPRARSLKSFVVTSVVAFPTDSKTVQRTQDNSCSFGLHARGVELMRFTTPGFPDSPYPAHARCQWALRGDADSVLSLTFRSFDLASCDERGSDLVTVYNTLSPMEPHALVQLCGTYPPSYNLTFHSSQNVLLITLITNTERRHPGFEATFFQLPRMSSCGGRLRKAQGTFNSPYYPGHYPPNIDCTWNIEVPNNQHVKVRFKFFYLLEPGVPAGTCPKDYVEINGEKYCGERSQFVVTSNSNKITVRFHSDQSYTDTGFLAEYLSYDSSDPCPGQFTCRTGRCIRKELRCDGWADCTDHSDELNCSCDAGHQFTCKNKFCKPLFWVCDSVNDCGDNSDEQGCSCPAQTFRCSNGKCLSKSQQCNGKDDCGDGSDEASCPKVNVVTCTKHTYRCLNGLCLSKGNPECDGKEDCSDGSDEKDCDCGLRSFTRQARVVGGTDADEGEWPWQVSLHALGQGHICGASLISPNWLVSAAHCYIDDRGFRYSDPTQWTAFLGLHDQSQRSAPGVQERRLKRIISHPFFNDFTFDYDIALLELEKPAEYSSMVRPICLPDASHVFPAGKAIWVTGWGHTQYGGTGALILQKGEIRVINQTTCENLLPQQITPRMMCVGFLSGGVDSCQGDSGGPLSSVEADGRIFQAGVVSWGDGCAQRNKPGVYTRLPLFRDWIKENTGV
Briefly: Inhibition of matriptase (unknown origin) using Boc-QAR-MCA as substrate after 30 mins.

The target of assay [6] is Tissue-type plasminogen activator (Homo sapiens, UniProt P00750). Briefly: Inhibition of tPA (unknown origin) using Z-Pyr-Gly-Arg-MCA as substrate after 30 mins relative to untreated control.
Chain of Tissue-type plasminogen activator (P00750 whole entry): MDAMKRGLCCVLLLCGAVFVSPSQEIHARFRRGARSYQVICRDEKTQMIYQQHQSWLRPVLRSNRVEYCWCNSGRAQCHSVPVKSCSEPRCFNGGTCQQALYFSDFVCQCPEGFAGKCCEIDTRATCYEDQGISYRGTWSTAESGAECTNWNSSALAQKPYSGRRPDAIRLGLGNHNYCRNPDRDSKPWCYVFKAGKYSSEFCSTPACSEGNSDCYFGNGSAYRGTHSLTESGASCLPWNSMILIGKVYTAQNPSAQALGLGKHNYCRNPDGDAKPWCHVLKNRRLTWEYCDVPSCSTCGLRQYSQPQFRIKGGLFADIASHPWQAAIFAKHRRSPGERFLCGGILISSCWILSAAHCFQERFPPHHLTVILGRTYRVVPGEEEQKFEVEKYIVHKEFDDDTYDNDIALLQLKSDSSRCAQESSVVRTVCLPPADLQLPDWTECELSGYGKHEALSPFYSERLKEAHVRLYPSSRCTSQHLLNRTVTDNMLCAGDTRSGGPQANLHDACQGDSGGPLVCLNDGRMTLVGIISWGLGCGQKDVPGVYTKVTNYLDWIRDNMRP
Another assay addresses T6, Cathepsin G (Homo sapiens, UniProt P08311).
T6 sequence (P08311 whole entry): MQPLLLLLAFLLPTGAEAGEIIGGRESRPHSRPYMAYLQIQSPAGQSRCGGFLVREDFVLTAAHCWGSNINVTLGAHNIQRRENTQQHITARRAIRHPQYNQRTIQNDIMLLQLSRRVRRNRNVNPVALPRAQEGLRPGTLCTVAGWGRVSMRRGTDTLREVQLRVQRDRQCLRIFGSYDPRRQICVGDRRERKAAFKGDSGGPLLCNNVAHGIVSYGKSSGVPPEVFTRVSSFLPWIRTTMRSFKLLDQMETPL
Briefly: Inhibition of human cathepsin G using Suc-AAPF-MCA as substrate after 30 mins.

Assay [7] concerns the target T1, Prothrombin. Briefly: Inhibition of human thrombin using Ac-ATPR-pNA as substrate after 30 mins.
Assay [8] has as its target T7, Coagulation factor XI (Homo sapiens, UniProt P03951). Briefly: Inhibition of activated beta-factor 11 (unknown origin) using Bz-FVRpNA as substrate after 30 mins.
Assay [9] has as its target T3, Plasma kallikrein. Briefly: Inhibition of plasma KLK (unknown origin) using Ac-NLTR-pNA as substrate after 30 mins relative to untreated control.
Assay [10] deals with T5, Suppressor of tumorigenicity 14 protein. Briefly: Inhibition of matriptase (unknown origin) using Boc-QAR-MCA as substrate after 30 mins relative to untreated control.
For assay [11], the target named is T7, Coagulation factor XI. Briefly: Inhibition of activated beta-factor 11 (unknown origin) using Bz-FVRpNA as substrate after 30 mins relative to untreated control.
Assay [12] concerns the target T2, Coagulation factor XII. Briefly: Inhibition of human beta-factor 12a using Ac-QRFR-pNA as substrate after 30 mins.
The target of assay [13] is Trypsin (Sus scrofa) (UniProt P00761). Briefly: Inhibition of porcine trypsin assessed as association rate constant using peptide-pNA as substrate.
Chain of Trypsin (Sus scrofa) (P00761 whole entry, the tested form may be a part): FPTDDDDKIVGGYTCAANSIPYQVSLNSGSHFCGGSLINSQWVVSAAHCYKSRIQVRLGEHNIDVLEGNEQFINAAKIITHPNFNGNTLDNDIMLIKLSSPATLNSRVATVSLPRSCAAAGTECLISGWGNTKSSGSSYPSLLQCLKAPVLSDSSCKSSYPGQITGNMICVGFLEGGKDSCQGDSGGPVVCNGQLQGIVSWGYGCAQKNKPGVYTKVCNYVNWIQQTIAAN
Assay [14] can be described thus: Inhibition of bovine trypsin pre-incubated for 60 mins before tos-GPR-AMC substrate addition. Further details: species or system Bos taurus.
In assay [15] the target is Trypsin (Sus scrofa) (UniProt P00761). Briefly: Inhibition of porcine trypsin assessed as dissociation rate constant using peptide-pNA as substrate.
For assay [16], the target named is T5, Suppressor of tumorigenicity 14 protein. Briefly: Inhibition of recombinant human matriptase catalytic domain pre-incubated for 60 mins before Boc QAR-AMC substrate addition.

pKi: −log10 of the molar value. Residues, ends and D or L forms follow the SMILES beside them.

T7 sequence (P03951 19-387 limits assumed): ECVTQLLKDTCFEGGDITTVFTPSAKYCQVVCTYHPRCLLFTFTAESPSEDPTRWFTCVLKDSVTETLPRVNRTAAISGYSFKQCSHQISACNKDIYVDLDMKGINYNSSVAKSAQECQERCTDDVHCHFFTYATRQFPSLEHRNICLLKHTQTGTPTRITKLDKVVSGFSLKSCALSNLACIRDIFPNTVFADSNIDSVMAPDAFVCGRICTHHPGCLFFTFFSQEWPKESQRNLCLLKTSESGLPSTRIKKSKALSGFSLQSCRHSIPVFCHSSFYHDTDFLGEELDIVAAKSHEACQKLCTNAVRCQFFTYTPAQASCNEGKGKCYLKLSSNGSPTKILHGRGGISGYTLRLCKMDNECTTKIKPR
T7 sequence (P03951 388-625 limits assumed): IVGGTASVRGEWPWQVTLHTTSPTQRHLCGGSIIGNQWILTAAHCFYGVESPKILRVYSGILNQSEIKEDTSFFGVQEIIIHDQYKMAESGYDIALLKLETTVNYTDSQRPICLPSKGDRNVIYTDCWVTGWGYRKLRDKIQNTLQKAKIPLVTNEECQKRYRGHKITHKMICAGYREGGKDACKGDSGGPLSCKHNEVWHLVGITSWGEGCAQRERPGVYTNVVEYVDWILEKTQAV

Consider `CC[C@H](C)[C@@H]1NC(=O)[C@@H]2CCCN2C(=O)[C@@H]2CCCN2C(=O)[C@H]([C@@H](C)CC)NC(=O)[C@H](CO)NC(=O)[C@H](CCCCN)NC(=O)[C@H](Cc2ccc(O)cc2)NC(=O)[C@@H]2CSSC[C@H](NC1=O)C(=O)N[C@@H](Cc1ccccc1)C(=O)N1CCC[C@H]1C(=O)N[C@@H](CC(=O)O)C(=O)NCC(=O)N[C@@H](CCCNC(=N)N)C(=O)N2` (HELM PEPTIDE1{C.F.P.D.G.R.C.Y.K.S.I.P.P.I}$PEPTIDE1,PEPTIDE1,1:R3-7:R3|PEPTIDE1,PEPTIDE1,1:R1-14:R2$$$V2.0), for which the negative-log Ki (pKi) is 3.60 at Prothrombin [1]; under 4.30 on Coagulation factor XII [2]; 4.49 at Plasma kallikrein [3]; under 4.30 in assay [4]; under 4.30 at Coagulation factor X; under 4.30 at Coagulation factor IX. For the same compound, the pKi is 9.85 on Plasminogen; 7.96 on Serine protease 1; 3.32 in assay [5]; under 4.30 in [6]; 5.11 on Cathepsin G; 3.60 at Prothrombin [7]. For the same compound, on Coagulation factor XI [8], the negative-log Ki (pKi) was 4.89.

`CC[C@H](C)[C@@H]1NC(=O)[C@@H]2CCCN2C(=O)[C@@H]2CCCN2C(=O)[C@H](CCCNC(=N)N)NC(=O)[C@H](CO)NC(=O)[C@H](CCCCN)NC(=O)[C@H](Cc2ccc(O)cc2)NC(=O)[C@@H]2CSSC[C@H](NC1=O)C(=O)N[C@@H](Cc1ccccc1)C(=O)N1CCC[C@H]1C(=O)N[C@@H](CC(=O)O)C(=O)NCC(=O)N[C@@H](CCCNC(=N)N)C(=O)N2` (HELM PEPTIDE1{C.F.P.D.G.R.C.Y.K.S.R.P.P.I}$PEPTIDE1,PEPTIDE1,1:R3-7:R3|PEPTIDE1,PEPTIDE1,1:R1-14:R2$$$V2.0): the pKi (on Prothrombin [1]; on Plasma kallikrein [9]; on Coagulation factor XII [2]; in [10]; in assay [4]; at Coagulation factor X) was under 4.30 each time. Besides, the negative logarithm of the Ki (pKi) at Coagulation factor IX was under 4.30; on Coagulation factor XI [11] it was under 4.30; at Plasminogen, 10.39; at Serine protease 1 it was 7.55; in [6] it was under 4.30; at Cathepsin G, 4.89.

Take `CC[C@H](C)[C@@H]1NC(=O)[C@@H]2CCCN2C(=O)[C@@H]2CCCN2C(=O)[C@H]([C@@H](C)CC)NC(=O)[C@H](CO)NC(=O)[C@H](CCCCN)NC(=O)[C@H]([C@@H](C)O)NC(=O)[C@@H]2CSSC[C@H](NC1=O)C(=O)N[C@@H](Cc1ccccc1)C(=O)N1CCC[C@H]1C(=O)N[C@@H](CC(=O)O)C(=O)NCC(=O)N[C@@H](CCCNC(=N)N)C(=O)N2`: the pKi on Coagulation factor XII [12] was 3.89; in assay [14], 10.77; in assay [16], 6.70. The K at Trypsin (Sus scrofa) [13] worked out at 0.2 ×10⁷ /M/s; on Trypsin (Sus scrofa) [15], 0.5 ×10⁻⁴ /s.
